Laboratory results published in US7659292B2 (priority 2001, dated 2010).
Read-outs that look alike come from different tables or passages of the source.

System: Phytophthora infestans
Assay type: in vivo
Conditions: for Efficacy (obs.)/ %: percentage disease control relative to untreated plants; for Rating: potato plants, spray 200 l/ha, inoculated 24 hours after treatment, degree of infestation

SMILES	Efficacy (obs.)/ % (400 g/ha) [%]	Efficacy (obs.)/ % (600 g/ha) [%]	Rating (400 g/ha)	Rating (600 g/ha)	Efficacy (obs.)/ % (5 g/ha) [%]	Efficacy (obs.)/ % (25 g/ha) [%]	Rating (5 g/ha)	Rating (25 g/ha)
CCCOC(=O)NCCCN(C)C [Compound (II), propyl 3-(dimethylamino)propylcarbamate]	0	18	8.3	6.8	–	–	–	–
O=C(NCc1ncc(C(F)(F)F)cc1Cl)c1c(Cl)cccc1Cl [Compound (Ia), 2,6-dichloro-N-{[3-chloro-5-(trifluoromethyl)-2-pyridinyl]methyl}benzamide]	–	–	–	–	48	60	4.3	3.3
